Test: Stability of Racecadotril in Beta-HPCD at 40° C., pH 3.6/4.0/4.5 (HPLC)
Type: physicochemical
Description: Test Methods Sample Preparation: • 1. Pipet 1 mL of Racecadotril solution into a 100 mL volumetric flask (V.F.) • 2. Dilute to volume with the same buffer used in the solution preparation. • 3. Further dilute the sample solution to about 0.1 mg/mL if necessary. […] Parameters may be modified to optimize chromatography. • The assay of Racecadotril is determined by using the external standard injected. The degradation products levels are determined by % peak area relative to the Racecadotril peak. Chromatographic Conditions (European Pharmacopoeia Racecadotril Method): [table] Gradient Table: [table] Mobil Phase A: Phosphate buffer, pH 2.5 (Buffer prep: dissolve 1 g of potassium dihydrogen phosphate in water, adjust to pH 2.5 with phosphoric acid, dilute to 1000 mL with water) Mobil Phase B: 100% Acetonitrile Stability of Racecadotril in Beta-Hydroxypropyl-Cyclodextrin (Beta-HPCD) at 40° C.

[1] = Acetate, pH 3.6, 40° C., 1 week
[2] = Acetate, pH 3.6, 40° C., 2 week
[3] = Acetate, pH 3.6, 40° C., 3 week
[4] = Acetate, pH 3.6, 40° C., 4 week
[5] = Acetate, pH 3.6, 40° C., 6 week
[6] = Acetate, pH 3.6, 40° C., 8 week
[7] = Acetate, pH 3.6, 40° C., Initial
[8] = Acetate, pH 4.0, 40° C., 1 week
[9] = Acetate, pH 4.0, 40° C., 2 week
[10] = Acetate, pH 4.0, 40° C., 3 week
[11] = Acetate, pH 4.0, 40° C., 4 week
[12] = Acetate, pH 4.0, 40° C., 6 week
[13] = Acetate, pH 4.0, 40° C., 8 week
[14] = Acetate, pH 4.0, 40° C., Initial
[15] = Acetate, pH 4.5, 40° C., 1 week
[16] = Acetate, pH 4.5, 40° C., 2 week
[17] = Acetate, pH 4.5, 40° C., 3 week
[18] = Acetate, pH 4.5, 40° C., 4 week
[19] = Acetate, pH 4.5, 40° C., 6 week
[20] = Acetate, pH 4.5, 40° C., 8 week
[21] = Acetate, pH 4.5, 40° C., Initial
[22] = Citrate, pH 3.6, 40° C., 1 week
[23] = Citrate, pH 3.6, 40° C., 2 week
[24] = Citrate, pH 3.6, 40° C., 3 week
[25] = Citrate, pH 3.6, 40° C., 4 week
[26] = Citrate, pH 3.6, 40° C., 6 week
[27] = Citrate, pH 3.6, 40° C., 8 week
[28] = Citrate, pH 3.6, 40° C., Initial
[29] = Citrate, pH 4.0, 40° C., 1 week
[30] = Citrate, pH 4.0, 40° C., 2 week
[31] = Citrate, pH 4.0, 40° C., 3 week
[32] = Citrate, pH 4.0, 40° C., 4 week
[33] = Citrate, pH 4.0, 40° C., 6 week
[34] = Citrate, pH 4.0, 40° C., 8 week
[35] = Citrate, pH 4.0, 40° C., Initial
[36] = Citrate, pH 4.5, 40° C., 1 week
[37] = Citrate, pH 4.5, 40° C., 2 week
[38] = Citrate, pH 4.5, 40° C., 3 week
[39] = Citrate, pH 4.5, 40° C., 4 week
[40] = Citrate, pH 4.5, 40° C., 6 week
[41] = Citrate, pH 4.5, 40° C., 8 week
[42] = Citrate, pH 4.5, 40° C., Initial

Benz Alcohol [1]: 0.69%
Impurity C [1]: 0.93%
Impurity G [1]: 1.17%
RAC [1]: 97.21%
Thiorphan [1]: 0.00%
Benz Alcohol [2]: 1.40%
Impurity C [2]: 1.87%
Impurity G [2]: 1.74%
RAC [2]: 94.88%
Thiorphan [2]: 0.11%
Benz Alcohol [3]: 2.13%
Impurity C [3]: 2.78%
Impurity G [3]: 1.93%
RAC [3]: 93.01%
Thiorphan [3]: 0.14%
Benz Alcohol [4]: 2.84%
Impurity C [4]: 3.56%
Impurity G [4]: 3.00%
RAC [4]: 90.15%
Thiorphan [4]: 0.30%
Benz Alcohol [5]: 4.33%
Impurity C [5]: 5.17%
Impurity G [5]: 3.82%
RAC [5]: 85.75%
Thiorphan [5]: 0.57%
Benz Alcohol [6]: 5.78%
Impurity C [6]: 6.33%
Impurity G [6]: 5.28%
RAC [6]: 80.68%
Thiorphan [6]: 1.00%
Benz Alcohol [7]: 0.00%
Impurity C [7]: 0.00%
Impurity G [7]: 0.07%
RAC [7]: 99.93%
Thiorphan [7]: 0.00%
Benz Alcohol [8]: 0.70%
Impurity C [8]: 0.93%
Impurity G [8]: 1.36%
RAC [8]: 97.01%
Thiorphan [8]: 0.00%
Benz Alcohol [9]: 1.39%
Impurity C [9]: 1.82%
Impurity G [9]: 1.70%
RAC [9]: 95.02%
Thiorphan [9]: 0.07%
Benz Alcohol [10]: 2.09%
Impurity C [10]: 2.83%
Impurity G [10]: 2.66%
RAC [10]: 92.23%
Thiorphan [10]: 0.19%
Benz Alcohol [11]: 2.84%
Impurity C [11]: 3.52%
Impurity G [11]: 3.62%
RAC [11]: 89.50%
Thiorphan [11]: 0.38%
Benz Alcohol [12]: 4.28%
Impurity C [12]: 5.16%
Impurity G [12]: 5.67%
RAC [12]: 83.98%
Thiorphan [12]: 0.71%
Benz Alcohol [13]: 5.37%
Impurity C [13]: 6.20%
Impurity G [13]: 8.46%
RAC [13]: 78.53%
Thiorphan [13]: 1.19%
Benz Alcohol [14]: 0.00%
Impurity C [14]: 0.00%
Impurity G [14]: 0.00%
RAC [14]: 100.00%
Thiorphan [14]: 0.00%
Benz Alcohol [15]: 0.02%
Impurity C [15]: 0.21%
Impurity G [15]: 3.17%
RAC [15]: 96.33%
Thiorphan [15]: 0.02%
Benz Alcohol [16]: 0.40%
Impurity C [16]: 0.40%
Impurity G [16]: 6.50%
RAC [16]: 92.61%
Thiorphan [16]: 0.04%
Benz Alcohol [17]: 0.59%
Impurity C [17]: 0.58%
Impurity G [17]: 9.43%
RAC [17]: 89.29%
Thiorphan [17]: 0.06%
Benz Alcohol [18]: 0.79%
Impurity C [18]: 0.72%
Impurity G [18]: 11.84%
RAC [18]: 86.50%
Thiorphan [18]: 0.11%
Benz Alcohol [19]: 1.14%
Impurity C [19]: 1.04%
Impurity G [19]: 17.32%
RAC [19]: 80.25%
Thiorphan [19]: 0.20%
Benz Alcohol [20]: 1.51%
Impurity C [20]: 1.25%
Impurity G [20]: 21.73%
RAC [20]: 75.06%
Thiorphan [20]: 0.36%
Benz Alcohol [21]: 0.02%
Impurity C [21]: 0.02%
Impurity G [21]: 0.21%
RAC [21]: 99.68%
Thiorphan [21]: 0.01%
Benz Alcohol [22]: 0.79%
Impurity C [22]: 0.98%
Impurity G [22]: 1.78%
RAC [22]: 96.45%
Thiorphan [22]: 0.00%
Benz Alcohol [23]: 1.72%
Impurity C [23]: 2.30%
Impurity G [23]: 3.81%
RAC [23]: 92.01%
Thiorphan [23]: 0.13%
Benz Alcohol [24]: 2.59%
Impurity C [24]: 3.36%
Impurity G [24]: 5.52%
RAC [24]: 88.22%
Thiorphan [24]: 0.31%
Benz Alcohol [25]: 3.38%
Impurity C [25]: 4.23%
Impurity G [25]: 7.38%
RAC [25]: 84.51%
Thiorphan [25]: 0.47%
Benz Alcohol [26]: 5.09%
Impurity C [26]: 6.13%
Impurity G [26]: 9.72%
RAC [26]: 77.91%
Thiorphan [26]: 1.11%
Benz Alcohol [27]: 6.64%
Impurity C [27]: 7.54%
Impurity G [27]: 12.47%
RAC [27]: 71.51%
Thiorphan [27]: 1.80%
Benz Alcohol [28]: 0.00%
Impurity C [28]: 0.00%
Impurity G [28]: 0.09%
RAC [28]: 99.91%
Thiorphan [28]: 0.00%
Benz Alcohol [29]: 0.89%
Impurity C [29]: 1.23%
Impurity G [29]: 1.95%
RAC [29]: 95.93%
Thiorphan [29]: 0.00%
Benz Alcohol [30]: 1.41%
Impurity C [30]: 1.82%
Impurity G [30]: 3.47%
RAC [30]: 93.19%
Thiorphan [30]: 0.11%
Benz Alcohol [31]: 2.36%
Impurity C [31]: 2.82%
Impurity G [31]: 4.79%
RAC [31]: 89.81%
Thiorphan [31]: 0.21%
Benz Alcohol [32]: 2.79%
Impurity C [32]: 3.43%
Impurity G [32]: 6.57%
RAC [32]: 86.78%
Thiorphan [32]: 0.40%
Benz Alcohol [33]: 4.19%
Impurity C [33]: 4.98%
Impurity G [33]: 9.24%
RAC [33]: 80.70%
Thiorphan [33]: 0.85%
Benz Alcohol [34]: 5.54%
Impurity C [34]: 6.22%
Impurity G [34]: 11.26%
RAC [34]: 75.46%
Thiorphan [34]: 1.42%
Benz Alcohol [35]: 0.00%
Impurity C [35]: 0.00%
Impurity G [35]: 0.00%
RAC [35]: 100.00%
Thiorphan [35]: 0.00%
Benz Alcohol [36]: 0.22%
Impurity C [36]: 0.18%
Impurity G [36]: 3.15%
RAC [36]: 96.44%
Thiorphan [36]: 0.01%
Benz Alcohol [37]: 0.40%
Impurity C [37]: 0.36%
Impurity G [37]: 6.04%
RAC [37]: 93.19%
Thiorphan [37]: 0.03%
Benz Alcohol [38]: 0.59%
Impurity C [38]: 0.52%
Impurity G [38]: 8.66%
RAC [38]: 90.20%
Thiorphan [38]: 0.06%
Benz Alcohol [39]: 0.79%
Impurity C [39]: 0.62%
Impurity G [39]: 11.16%
RAC [39]: 87.41%
Thiorphan [39]: 0.10%
Benz Alcohol [40]: 1.14%
Impurity C [40]: 0.90%
Impurity G [40]: 15.86%
RAC [40]: 82.05%
Thiorphan [40]: 0.17%
Benz Alcohol [41]: 1.51%
Impurity C [41]: 1.11%
Impurity G [41]: 19.95%
RAC [41]: 77.34%
Thiorphan [41]: 0.29%
Benz Alcohol [42]: 0.02%
Impurity C [42]: 0.01%
Impurity G [42]: 0.19%
RAC [42]: 99.71%
Thiorphan [42]: 0.01%
Compound: CC(=O)SCC(Cc1ccccc1)C(=O)NCC(=O)OCc1ccccc1 (racemic) [Racecadotril]

Source: patent US9114171B2, “Racecadotril liquid compositions” (McNeil-PPC, Inc., priority 2012, dated 2015)
